From the NIST ThermoML archive (doi:10.1021/acs.jced.7b00782)
± gives the expanded uncertainty stated by the source.

Conditions: Closed cell (Static) method

Structure (SMILES)	vapor or sublimation pressure (105.89 K, Crystal) [kPa]	vapor or sublimation pressure (127.32 K, Liquid) [kPa]	vapor or sublimation pressure (135.8 K, Liquid) [kPa]	vapor or sublimation pressure (146.22 K, Liquid) [kPa]	vapor or sublimation pressure (105.89 K, Liquid) [kPa]
[N]=O [nitrogen oxide (NO)]	13.6 ± 20	188.3 ± 23	410.9 ± 26	987.8 ± 30	
[C-]#[O+] [carbon monoxide]		2682 ± 40			830 ± 40
[Ar] [argon]			2605.6 ± 58	4028.9 ± 58	
